In US10005767B2, “Compositions and methods for inhibition of the JAK pathway” (Rigel Pharmaceuticals, Inc., priority 2009, dated 2018) one finds IC50 data, which are given here for 31 compounds.

Broadly, the IC50 is the concentration at which inhibition is half-maximal.

The structures appear in SMILES notation. Counter-ions that a name gives are not always drawn.

One test relates to human primary T-cells, IL-2 stimulated proliferation (JAK-1 and JAK-3 dependent; reported as JAK3 activity). Briefly: Human primary T-cell proliferation stimulated by IL-2 (Example 3). Particulars: Homo sapiens, T-cell, tested under conditions described in Example 3 (IL-2 stimulated human primary T-cell proliferation); read-out: ability to inhibit JAK3 activity, IC50 range (Table V). In kind it is cell-based. An outline of the steps:
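Peripheral-blood human T-cells pre-activated via TCR/CD28, IL-2-starved overnight, then cultured 72 h at 37 °C with compound in Yssel's medium containing IL-2 (80 U/mL in cell suspension). Proliferation read as viable-cell ATP by CellTiter-Glo luminescence; reduction versus control taken as JAK pathway inhibition.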
`Cc1cnc(Nc2ccc(OCC3CCCCC3)c(C(F)(F)F)c2)nc1Nc1ccc2oc(=O)[nH]c2c1` [Compound I-179, 5-[2-(4-Cyclohexylmethoxy-3-trifluoromethyl-phenylamino)-5-methyl-pyrimidin-4-ylamino]-3H-benzooxazol-2-one]: the IC50 is over 10 µM.
Regarding `Cc1cnc(Nc2ccc(OC(F)(F)F)c(C(F)(F)F)c2)nc1Nc1ccc2oc(=O)[nH]c2c1` [Compound I-161, 5-[5-Methyl-2-(4-trifluoromethoxy-3-trifluoromethyl-phenylamino)-pyrimidin-4-ylamino]-3H-benzooxazol-2-one], the IC50 is under 0.5 µM.
On to `Cc1ccc(F)c(Nc2ncc(C)c(Nc3ccc4oc(=O)[nH]c4c3)n2)c1` [Compound I-515, 5-(2-(2-fluoro-5-methylphenylamino)-5-methylpyrimidin-4-ylamino)benzo[d]oxazol-2(3H)-one], for which the IC50 was under 0.5 µM.
Consider `Cc1cnc(Nc2ccc3c(c2)C(=O)N(C)C/C=C\C3)nc1Nc1ccc2oc(=O)[nH]c2c1` [IV-10, (Z)-2-Methyl-9-[5-methyl-4-(2-oxo-2,3-dihydro-benzooxazol-5-ylamino)-pyrimidin-2-ylamino]-3,6-dihydro-2H-benzo[c]azocin-1-one], for which the IC50 was under 0.5 µM.
On to `Cc1cnc(Nc2ccc(-c3ccc(N4CCOCC4)nc3)cc2)nc1Nc1ccc2oc(=O)[nH]c2c1` [Compound I-512, 5-(5-methyl-2-(4-(6-morpholinopyridin-3-yl)phenylamino)pyrimidin-4-ylamino)benzo[d]oxazol-2(3H)-one trifluoroacetate salt], for which the IC50 was under 0.5 µM.
On to `Cc1cnc(Nc2cnc(N3CC4CCC(C3)N4C(=O)C(F)(F)F)c(C)c2)nc1Nc1ccc2oc(=O)[nH]c2c1` [II-63, 5-(5-methyl-2-(5-methyl-6-(8-(2,2,2-trifluoroacetyl)-3,8-diaza-bicyclo[3.2.1]octan-3-yl)pyridin-3-ylamino)pyrimidin-4-ylamino)benzo[d]oxazol-2(3H)-one], for which the IC50 is under 0.5 µM.
The same measure, in the same setting: the figure for `Cc1cnc(Nc2ccc3cnccc3c2)nc1Nc1ccc2oc(=O)[nH]c2c1` [IV-53, 5-[2-(Isoquinolin-6-ylamino)-5-methyl-pyrimidin-4-ylamino]-3H-benzooxazol-2-one] is 5 to 10 µM.
Same read-out and setting: the value for `COc1ccnc(Nc2ncc(C)c(Nc3ccc4oc(=O)[nH]c4c3)n2)c1` [IV-58, N2-(4-methoxypyridin-2-yl)-5-methyl-N4-(2-oxo-2,3-dihydro-1,3-benzoxazol-5-yl)-2,4-pyrimidinediamine] was over 10 µM; that for `Cc1cnc(Nc2ccc(C(=O)NC(C)C)cc2)nc1Nc1ccc2oc(=O)[nH]c2c1` [Compound I-139, N-Isopropyl-4-[5-methyl-4-(2-oxo-2,3-dihydro-benzooxazol-5-ylamino)-pyrimidin-2-ylamino]-benzamide] was under 0.5 µM; that for `Cc1cnc(Nc2ccc(N3C[C@@H]4C[C@H]3CO4)nc2)nc1Nc1ccc2oc(=O)[nH]c2c1` [II-32, N4-(benzoxazolin-2-on-5-yl)-N2-[2-((1S,4S)-2-oxa-5-azabicyclo[2.2.1]heptan-5-yl)pyridin-5-yl]-5-methylpyrimidine-2,4-diamine] was under 0.5 µM.
In the case of `Cc1cnc(Nc2cnc(N3C[C@@H]4C[C@H]3CN4C)c(C)c2)nc1Nc1ccc2oc(=O)[nH]c2c1` [II-28, N4-(benzoxazolin-2-on-5-yl)-N2-[3-methyl-2-((1S,4S)-5-methyl-2,5-diazabicyclo[2.2.1]heptan-2-yl)pyridin-5-yl]-5-methylpyrimidine-2,4-diamine], the half-maximal inhibitory concentration (IC50) was under 0.5 µM.
Regarding `Cc1cnc(Nc2ccc3ccncc3c2)nc1Nc1ccc2oc(=O)[nH]c2c1` [IV-57, 5-[2-(Isoquinolin-7-ylamino)-5-methyl-pyrimidin-4-ylamino]-3H-benzooxazol-2-one], the IC50 is over 10 µM.
Still for that read-out and setting: the figure for `Cc1cnc(Nc2cnc(N3C[C@@H]4C[C@H]3CN4C)c(C#N)c2)nc1Nc1ccc2oc(=O)[nH]c2c1` [II-115, N4-(benzo[d]oxazolin-2(3H)-one-5-yl)-N2-[3-cyano-2-((1S,4S)-5-methyl-2,5-diazabicyclo[2.2.1]heptan-2-yl)pyridine-5-yl]-5-methyl-2,4-pyrimidinediamine] is under 0.5 µM; for `Cc1cc(CF)cc(Nc2ncc(C)c(Nc3ccc4oc(=O)[nH]c4c3)n2)c1` [Compound I-238, 5-(2-(3-(fluoromethyl)-5-methylphenylamino)-5-methylpyrimidin-4-ylamino)benzo[d]oxazol-2(3H)-one] it is under 0.5 µM.
As to `Cc1cnc(Nc2ccc(N3CC4(C)CN(C)CC(C)(C3)C4)nc2)nc1Nc1ccc2oc(=O)[nH]c2c1` [II-117, 5-methyl-N4-(2-oxo-2,3-dihydro-1,3-benzoxazol-5-yl)-N2-[2-(1,3,5-trimethyl-3,7-diazabicyclo[3.3.1]nonan-7-yl)pyridin-5-yl]-2,4-pyrimidinediamine], the half-inhibitory concentration (IC50) was under 0.5 µM.
Turning to `Cc1cnc(Nc2cccc(NS(C)(=O)=O)c2)nc1Nc1ccc2[nH]c(=O)[nH]c2c1` [Compound I-54, N2-(3-(methylsulfonylamino)phenyl)-N4-(1H-benzo[d]imidazol-2(3H)-on-5-yl)-5-methylpyrimidine-2,4-diamine], the IC50 is under 0.5 µM.
The same measure, in the same setting: the value for `Cc1cnc(Nc2cccc(C(=O)N3CCOCC3)c2)nc1Nc1ccc2oc(=O)[nH]c2c1` [Compound I-256, 5-(5-methyl-2-(3-(morpholine-4-carbonyl)phenylamino)pyrimidin-4-ylamino)benzo[d]oxazol-2(3H)-one] was under 0.5 µM.
Consider `Cc1cnc(Nc2cccc(OC(F)(F)F)c2)nc1Nc1ccc2oc(=O)[nH]c2c1` [Compound I-106, N4-(benzoxazolin-2-on-5-yl)-N2-(3-trifluoromethoxyphenyl)-5-methylpyrimidine-2,4-diamine trifluoroacetate salt], for which the IC50 is under 0.5 µM.
On the same count and under the same terms, the value for `Cc1cnc(Nc2ccc(C(C)N3CCC3)cc2)nc1Nc1ccc2oc(=O)[nH]c2c1` (stereo not shown) [Compound I-201, 5-(2-(4-(1-(azetidin-1-yl)ethyl)phenylamino)-5-methylpyrimidin-4-ylamino)benzo[d]oxazol-2(3H)-one] was under 0.5 µM; that for `Cc1cc(Nc2ncc(C)c(Nc3ccc4oc(=O)[nH]c4c3)n2)ccc1C(=O)O` [Compound I-170, 2-Methyl-4-[5-methyl-4-(2-oxo-2,3-dihydro-benzooxazol-5-ylamino)-pyrimidin-2-ylamino]-benzoic acid] was over 10 µM.
`COc1cc(Nc2ncc(C)c(Nc3ccc4oc(=O)[nH]c4c3)n2)cc(Cl)c1OC` [Compound I-458, 5-(2-(3-chloro-4,5-dimethoxyphenylamino)-5-methylpyrimidin-4-ylamino)benzo[d]oxazol-2(3H)-one]: the IC50 is under 0.5 µM.

Still in this test, the particulars now being: tested under conditions described in Example 3 (IL-2 stimulated human primary T-cell proliferation); read-out: ability to inhibit JAK3 activity, IC50 range (Table V).
In the case of `Cc1cnc(Nc2ccc(NS(C)(=O)=O)cc2)nc1Nc1ccc2oc(=O)n(C(C)C)c2c1` [Compound I-10, N4-(3-isopropylbenzo[d]oxazol-2(3H)-on-5-yl)-N2-((4-methylsulfonylamino)phenyl)-5-methylpyrimidine-2,4-diamine], the IC50 is under 0.5 µM.
Same read-out and setting: the figure for `Cc1cnc(Nc2cnc(N3CCN4CCC3CC4)c(F)c2)nc1Nc1ccc2oc(=O)[nH]c2c1` [II-125, N2-[2-(1,4-diazabicylco[3.2.2]nonan-4-yl)-3-fluoropyridin-5-yl]-5-methyl-N4-(2-oxo-2,3-dihydro-1,3-benzoxazol-5-yl)-2,4-pyrimidinediamine] is under 0.5 µM; for `Cc1cnc(Nc2ccc3c(c2)OCO3)nc1Nc1ccc2oc(=O)[nH]c2c1` [IV-35, 5-methyl-N2-(3,4-methylenedioxy)phenyl-N4-(2-oxo-2,3-dihydro-1,3-benzoxazol-5-yl)-2,4-pyrimidinediamine] it is under 0.5 µM.
The same measure, in the same setting: the figure for `Cc1cnc(Nc2ccc(N3CCOC[C@@H]3C)nc2)nc1Nc1ccc2oc(=O)[nH]c2c1` [II-134, 5-methyl-N2-[2-(3 S-methylmorpholino)pyridin-5-yl]-N4-(2-oxo-2,3-dihydro-1,3-benzoxazol-5-yl)-2,4-pyrimidinediamine] is under 0.5 µM; for `Cn1c(=O)oc2cc(Nc3nc(Nc4cccc(S(C)(=O)=O)c4)ncc3F)ccc21` [Compound I-59, N2-((3-methylsulfonyl)phenyl)-N4-(3-methyl-2-oxo-2,3-dihydrobenzo[d]oxazol-6-yl)-5-fluoropyrimidine-2,4-diamine] it is under 0.5 µM.
On the same count and under the same terms, the figure for `Cc1cnc(Nc2cccc(S(N)(=O)=O)c2)nc1Nc1ccc2[nH]c(=O)[nH]c2c1` [Compound I-11, N4-(benzimidazolin-2-on-5-yl)-N2-((3-aminosulfonyl)phenyl)-5-methylpyrimidine-2,4-diamine] is under 0.5 µM.
Regarding `Cc1cnc(Nc2cc(F)cc(F)c2)nc1Nc1ccc2oc(=O)[nH]c2c1` [Compound I-359, N2-(3,5-difluoro)phenyl-5-methyl-N4-(2-oxo-2,3-dihydro-1,3-benzoxazol-5-yl)-2,4-pyrimidinediamine], the IC50 is under 0.5 µM.
For the compound `CCN1CCN(c2cc(Nc3ncc(C)c(Nc4ccc5oc(=O)[nH]c5c4)n3)ccc2Cl)CC1` [Compound I-283, N2-[4-chloro-3-(4-ethylpiperazino)]phenyl-5-methyl-N4-(2-oxo-2,3-dihydro-1,3-benzoxazol-5-yl)-2,4-pyrimidinediamine], the IC50 was under 0.5 µM.
For the compound `Cn1c(=O)oc2ccc(Nc3nc(Nc4ccc(S(C)(=O)=O)cc4)ncc3F)cc21` [Compound I-78, N2-((4-methylsulfonyl)phenyl)-N4-(3-methyl-2-oxo-2,3-dihydrobenzo[d]oxazol-5-yl)-5-fluoropyrimidine-2,4-diamine], the IC50 lay within 0.5 to 5 µM.
On the same count and under the same terms, the value for `Cc1cnc(Nc2ccc(C)c(C)c2F)nc1Nc1ccc2oc(=O)[nH]c2c1` [Compound I-493, N2-(3,4-dimethyl-2-fluoro)phenyl-5-methyl-N4-(2-oxo-2,3-dihydro-1,3-benzoxazol-5-yl)-2,4-pyrimidinediamine] was under 0.5 µM.
